Assay results taken from PMC11449324, “Functional comparison of human and murine equilibrative nucleobase transporter 1” (PLOS ONE, 2024).

Target: T1, mENBT1 (slc43a3-encoded mouse ENBT1) (Mus musculus, UniProt A2AVZ9)
T1 construct: Oligonucleotides corresponding to the coding region of SLC43A3 (NM_001278201) or slc43a3 (NM_021398); expressed in transfected cells; HEK293-mslc43a3
T1 sequence (A2AVZ9 1-502): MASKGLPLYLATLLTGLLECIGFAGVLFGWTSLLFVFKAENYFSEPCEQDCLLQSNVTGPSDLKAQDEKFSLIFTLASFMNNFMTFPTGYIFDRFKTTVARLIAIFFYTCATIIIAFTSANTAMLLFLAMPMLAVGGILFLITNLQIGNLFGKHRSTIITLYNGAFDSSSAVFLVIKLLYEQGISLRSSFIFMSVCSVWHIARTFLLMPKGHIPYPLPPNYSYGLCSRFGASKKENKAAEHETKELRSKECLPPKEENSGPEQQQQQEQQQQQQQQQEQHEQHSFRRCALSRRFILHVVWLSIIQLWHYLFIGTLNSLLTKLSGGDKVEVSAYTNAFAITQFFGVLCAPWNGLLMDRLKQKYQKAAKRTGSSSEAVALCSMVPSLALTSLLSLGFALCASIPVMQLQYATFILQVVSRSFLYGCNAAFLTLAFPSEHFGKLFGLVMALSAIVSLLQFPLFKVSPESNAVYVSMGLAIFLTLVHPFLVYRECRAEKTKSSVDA
Experiment: Radiolabelled substrate uptake (oil-stop, 2 s) in HEK293-mslc43a3 cells
Type: cell-based
Description: Harvested cells were suspended in nominally sodium-free N-methyl-D-glucamine (NMG) buffer (140 mM NMG, 5 mM KCl, 4.2 mM KHCO3, 0.36 mM K2HPO4, 0.44 mM KH2PO4, 0.5 mM MgCl2, 1.3 mM CaCl2, 10 mM HEPES, pH 7.4), to minimize potential contribution of sodium-dependent concentrative nucleoside transporter-mediated uptake. Additionally, cells were incubated for 15 minutes at room temperature with 10 μM dipyridamole (DY), an equilibrative nucleoside transporter (ENT) inhibitor, to block equilibrative nucleoside transporter–mediated uptake. The substrate uptake assay was initiated by adding 250 μL cell suspension to 250 μL [^3H] labeled substrate, layered over 21:4 silicone:mineral oil (200 μL) in 1.5 mL microcentrifuge tubes (conducted at room temperature). The uptake reaction was terminated after 2 seconds by centrifugation of the cells through the oil layer at ~10,000 g. […] The resulting cell pellet was digested in 250 μL 1 M NaOH overnight (~16 hours), with 220 μL aliquots of digested cells assessed for radioactive content using standard liquid scintillation counting techniques in a Beckman Coulter LS6500 scintillation system (Brea, CA).
In transfected-HEK293 cell lines, total uptake was defined as uptake of radiolabeled substrate in cells overexpressing recombinant hENBT1 or mENBT1. […] ENBT1-mediated uptake was calculated as total uptake minus the non-mediated uptake. […]

SMILES: Sc1ncnc2nc[nH]c12 [6-MP, 6-Mercaptopurine]
- 6-MP Km relative to adenine Km: 3 fold
- 6-MP Vmax relative to adenine Vmax: 3 fold
